# Data taken from patent US20090012148A1, “REDUCING CELLULAR CHOLESTEROL LEVELS AND/OR TREATING OR PREVENTING PHOSPHOLIPIDOSIS” (priority 2005, published 2009).
# Assays:
# Assay type in all cases: cell-based, Chinese hamster
# [1] = tested on: CT60 cells; assay: Filipin binding assay, average filipin intensity and staining pattern; details: for Average Filipin Assay @ 10 μM dose Fraction of Control: compounds from secondary library
# Procedure: We developed assays for correction of the NPC phenotype in CHO cell lines using filipin, which binds to non-esterified cholesterol and has been used to visualize the free cholesterol content in NPC cells. The initial screens were carried out in CT60 cells, which express a mutated hamster NPC1 protein and a gain of function mutation in SCAP (42). These cells cannot traffic LDL-derived cholesterol out of late endosomes, and large amounts of cholesterol accumulate in LSO compartments. FIGS. 1A-B show images of filipin staining in a control CHO cell line, TRVb1 (45) (FIG. 1A) and in CT60 cells (FIG. 1B). It can be seen that the CT60 cells show much more filipin staining than control cells and that the fluorescence in CT60 cells is concentrated in peri-nuclear organelles.
# For screening, images were acquired using a Discovery-1 automated microscopy system with a 10× objective and corrected for background and shading as described in Methods. Two thresholds were set for filipin staining, a low threshold to include all cell areas, and a high threshold for the strong filipin staining in the peri-nuclear LSOs. The threshold values were set for each plate from analysis of 64 images in 32 wells of untreated CT60 cells. […] In developing the low threshold, we compared the outlines based on the thresholded cell images with transmitted light images, and the thresholds provided good agreement with the transmitted light cell boundaries.
# As a simple measure of the intensity of filipin staining, we measured the filipin intensity per pixel above the threshold. The conditions of filipin labeling (time and concentration) were adjusted to optimize the discrimination between the CT60 cells and control TRVb1 cells. […] The quality of the assay for screening is expressed in terms of a statistical parameter Z′(46):
# Using the above screening technique, we screened a library of 14,956 compounds added to cells for 16 hours at a final concentration of 10 μM, using a single well for each compound. Prior to application of the compounds, cells were grown in normal tissue culture medium containing 10% FBS, so the LSOs were filled with cholesterol (FIG. 1B). The cells were then imaged and analyzed using the average filipin intensity assay and the LSO compartment assay. In general, the two analyses identified similar compounds that reduced the filipin labeling.
# Compound addition: The library compounds were formatted for screening in the Rockefeller University High Throughput Screening Facility. Cells were treated with the compounds from the chemical library one day after plating. We added […] of each compound (5 mM stock in DMSO) to 25 μl of screening Medium S composed of medium A supplemented with 1% FBS and 20 mM 4-(2-hydroxyethyl)-1-pipiperazine ethane sulphonic acid (HEPES) in Falcon 384-well V-bottomed polypropylene plates using a Packard MiniTrak™ robotic liquid handling system. To obtain ˜10 μM final concentration, 23 μl of the premixed compounds were dispensed into the plates containing cells and […] of culture medium A. For primary screening, 352 test compounds were added to each plate, and the remaining 32 wells were used as a control with only DMSO added. All plates were incubated with compounds for 16 h at 37° C. Plates were then washed three times with phosphate buffered saline pH 7.4 (PBS) using a Bio-Tek Elx405 plate washer (Bio-Tek Instruments Inc., Winooski, Vt.). For each wash cycle, […] of PBS was dispensed followed by aspiration with a residual volume of 16 μl per well. Finally, cells were fixed with 1.5% PFA in PBS for 20 min at room temperature, followed by 3 more washes with PBS.
# Fluorescence labeling. To the fixed cells, filipin was added at a final concentration of 50 μg/ml in PBS for 45 m at room temperature to label free cholesterol. Cells were finally washed three times with PBS, and images were acquired immediately after labeling. […]
# [2] = tested on: CT60 cells; assay: Gas chromatography cholesterol assay
# Procedure: The cholesterol lowering effect of the 14 hit compounds identified by filipin labeling was measured by an alternative chemical method that involved GC separation of solvent-extracted cellular lipids (43). CT60 cells were treated with compounds at 10 μM under the same conditions as in the screening assays. Since the GC assay estimates FC content per cell, the values are compared to the average filipin intensity assay (Table 1).
# CT60 or CT43 cells were plated on day 1 in 6-well plates. Hit compounds were added to the cells at 10 μM concentration. Cells were incubated for 24 h. Cellular lipids were extracted with hexane: iso-propyl alcohol (3:2 v/v). The lipid extracts were dried and re-suspended in hexane followed by separation on gas chromatograph using β-sitosterol as an internal standard.
# Procedure: CT60 cells were plated in 6-well plates in Ham's F-12/1.176 g/L sodium bicarbonate/2 g/L glucose/10% FBS. Following 24 h incubation, cells were treated with 10 μM of each compounds, medium being replaced with Ham's F-12/1.176 g/L sodium bicarbonate/2 g/L glucose/5.5% FBS/20 mM HEPES. The change of the medium in the wells was performed to have experimental conditions similar to those used for the screening once chemical compounds were added to the cells. After 18 h treatment with compounds, cells were washed twice with Hank's balanced salt solutions (HBSS). Cellular lipids were extracted with hexane/isopropyl alcohol (3:2 v/v) (43) dried and resuspended in hexane followed by separation on a gas chromatograph (GC) using following conditions. A Hewlett Packard GC model HP 5890 series II (Palo Alto, Calif.) equipped with a flame ionization detector, split-splitless injector, and 15 m×0.53 mm HP-5 capillary column coated with […] film thickness of 5% phenyl methyl siloxane was used to separate free cholesterol. The injection temperature was maintained at 255° C. and oven temperature was held isothermally at 260° C. using helium as a mobile phase at 30 mL/min flow rate. The free cholesterol (FC) was quantified using beta-sitosterol as internal standard to correct for lipid losses during extraction.
# [3] = tested on: 25RA CHO cells; assay: 3H cholesterol efflux assay on 25RA CHO cells; details: 10 μM, overnight chase
# Procedure: 25RA CHO cells were incubated with 10 μM concentrations of compound 2-a-1, 2-a-3,2-a-8, 2-a-9, and 2-a-13. Cells were loaded with ^3H cholesterol and then chased overnight in the presence or absence of the various compounds. The media over the cells were removed, and radioactivity released from the cells was measured. The cells were then solubilized, and radioactivity remaining in the cells was measured. […] The 25-RA cells do have a defect in SCAP, which alters cholesterol homeostasis, including increased synthesis of cholesterol.
Compound,"Average filipin intensity Fraction of control ([1]; 10 μM, 14 hit compounds from primary library)","μg FC/μg Protein by GC Fraction of control ([2]; 10 μM, FC = free cholesterol)",Average Filipin Assay @ 10 μM dose Fraction of Control [1],μg FC/μg Protein (GC) @ 10 μM dose Fraction of Control [2],efflux of cholesterol [3]
CCOc1cccc2cc(-c3csc(Nc4cccc(C(F)(F)F)c4)n3)c(=O)oc12 [Compound 1-a-14],1.24 ± 0.04 Fraction of control,1.44 ± 0.16 Fraction of control,–,–,–
COc1ccccc1Nc1nc(Nc2ccccc2OC)nc(Nc2ccccc2OC)n1 [Compound 2-a-9],–,–,0.74 ± 0.01 Fraction of Control,0.75 ± 0.04 Fraction of Control,promote efflux of cholesterol
O=[N+]([O-])c1cccc(C=NNc2nc(Nc3cccc4ccccc34)nc(N(c3ccccc3)c3ccccc3)n2)c1 [Compound 2-a-13],–,–,0.75 ± 0.02 Fraction of Control,0.79 ± 0.04 Fraction of Control,promote efflux of cholesterol
C=CCN1C(=O)C(=Cc2cc(C)n(-c3ccccc3)c2C)C(C(=O)OC)=C1C [Compound 2-a-15],–,–,0.79 ± 0.01 Fraction of Control,0.89 ± 0.03 Fraction of Control,–
CCN(CC)c1ccc(C=C2SC(=S)N(c3ccc(OC)cc3)C2=O)cc1 [Compound 2-a-3],–,–,0.75 ± 0.01 Fraction of Control,0.81 ± 0.03 Fraction of Control,promote efflux of cholesterol
FC(F)(F)COc1nc(NN=Cc2cccc(I)c2)nc(N(c2ccccc2)c2ccccc2)n1 [Compound 2-a-12],–,–,0.87 ± 0.01 Fraction of Control,–,–
